Assays:
[1] = Liver microsome metabolic stability, rat; format: in vitro ADME; conditions: rat liver microsomes, 45 min incubation
Experimental: (§1) Purpose: This experiment investigates the metabolic stability of the compound in liver microsomes of different species such as humans, mice and rats, and the residual content of the test compound after incubation with liver microsomes of different species such as humans, mice and rats.
(§2) Preparation of 500 μM solution of target compound and positive control: 5 μL of each 10 mM stock solution was taken, added to 95 μL acetonitrile, and mixed for 30 s;
(§3) Preparation of 6 mM NADPH solution: 100 mM Stock aliquot liquid was diluted with Mg-Mg —K-Buffer.
(§4) 2.1.1 Liver microsome solution: 18.75 μL of 20 mg/mL HLM, RLM, MLM, DLM, MOLM (final concentration: 0.5 mg/ml) were taken and placed them in each well of a 96-well plate;
(§5) 2.1.2 1.5 μL of 500 μM solution of each compound was added respectively;
(§6) 2.1.3 479.8 μL of phosphate buffer was taken, then added to each compound well, and mixed at 1000 rpm in an oscillating mixer for 10 s.
(§7) 30 μL of the above samples were taken and aliquoted to a new 96-well plates respectively (including NADPH group, n=2, and no NADPH group at 0 and 45 min, n=1), marked as 0, 5, 15, 30 and 45 min; […]
(§8) The slope was calculated based on the LN value of the compound concentration percentage and time as the coordinate axis, and the residual content of the compound after incubation with liver microsomes was calculated based on the slope and formula. […]

[2] = Liver microsome metabolic stability, mouse; format: in vitro ADME; conditions: mouse liver microsomes, 45 min incubation
Experimental: as §1, §2, §3, §4, §5, §6, §7, §8

[3] = system: iodoacetic acid (MIA)-induced SD rat knee osteoarthritis model; assay: Iodoacetic acid (MIA)-induced SD rat knee osteoarthritis model; format: in vivo, SD rats; conditions: 30 mg/kg orally once a day from Day 7 to Day 42; compared with model blank control group; 21 days to 42 days after modeling
Experimental: Purpose: Evaluate the efficacy of MCC950 (Positive reference compound) and compound 111 of the present disclosure on iodoacetic acid (MIA)-induced SD rat knee osteoarthritis model.
Experimental materials: Experimental male SD rats, 4 weeks old.
Model induction began after the experimental animals were adapted to the animal environment for 7 days. Day 0, the rats were anesthetized, the hair around the left knee joint was removed, and the skin was disinfected. The left leg was flexed 90° to expose the patellar platform. The depression in the middle of the platform was touched by hand to find the femoral condyle, patella and ligament. The syringe needle was inserted from the bottom of the patella on both sides of the patellar ligament to the direction of the femoral condyle. When a clear sense of empty space was felt, 50 μL of iodoacetic acid solution was injected. Day 7 Grouping was performed according to the width of the knee joint on the induced side. The groups were: normal control group (healthy control without modeling, 5% DMSO+10% Solutol+85% Saline), model blank control group (5% DMSO+10% Solutol+85% Saline), MCC950 30 mg/kg, and compound 111 of the present disclosure 30 mg/kg. Starting from Day 7, the normal control group and the model blank control group were given the solvent (5% DMSO+10% Solutol+85% Saline) orally once a day, and the other groups were given the corresponding compounds orally once a day until the end of the administration on Day 42. The knee joint width and body weight of the rats were measured once on Day 7, 14, 21, 28, 35, and 42.

LMS (r)(% rem, 45 min) [1]: 82.45 % rem
LMS (m)(% rem, 45 min) [2]: 91.34 % rem
Compound: CC(=O)N1CCOC[C@H]1CNc1nc2nc(-c3c(C)cc(C(F)(F)F)cc3O)ccc2o1 [Compound 111]
widening of the knee joints (knee joint width) [3]: could significantly inhibit the widening of the knee joints

— US20260234150A1, “COMPOUND FOR INHIBITING NLRP3, PREPARATION METHOD, AND USE” (DOVETREE MEDICINES UNUS, INC., priority 2023, published 2026)
